35 molecules from patent publication EP4667468A1, “COMPOUND FOR INHIBITING NLRP3, PREPARATION METHOD, AND USE” (Shenzhen Zhongge Biological Technology Co., Ltd., priority 2023, dated 2024) can be followed below.

For orientation: IC50 means the point on the concentration scale where inhibition reaches its midpoint. A higher IC50 goes with lower potency.

Sequence of IL-1β secretion of THP-1 cells (Q96P20 whole entry): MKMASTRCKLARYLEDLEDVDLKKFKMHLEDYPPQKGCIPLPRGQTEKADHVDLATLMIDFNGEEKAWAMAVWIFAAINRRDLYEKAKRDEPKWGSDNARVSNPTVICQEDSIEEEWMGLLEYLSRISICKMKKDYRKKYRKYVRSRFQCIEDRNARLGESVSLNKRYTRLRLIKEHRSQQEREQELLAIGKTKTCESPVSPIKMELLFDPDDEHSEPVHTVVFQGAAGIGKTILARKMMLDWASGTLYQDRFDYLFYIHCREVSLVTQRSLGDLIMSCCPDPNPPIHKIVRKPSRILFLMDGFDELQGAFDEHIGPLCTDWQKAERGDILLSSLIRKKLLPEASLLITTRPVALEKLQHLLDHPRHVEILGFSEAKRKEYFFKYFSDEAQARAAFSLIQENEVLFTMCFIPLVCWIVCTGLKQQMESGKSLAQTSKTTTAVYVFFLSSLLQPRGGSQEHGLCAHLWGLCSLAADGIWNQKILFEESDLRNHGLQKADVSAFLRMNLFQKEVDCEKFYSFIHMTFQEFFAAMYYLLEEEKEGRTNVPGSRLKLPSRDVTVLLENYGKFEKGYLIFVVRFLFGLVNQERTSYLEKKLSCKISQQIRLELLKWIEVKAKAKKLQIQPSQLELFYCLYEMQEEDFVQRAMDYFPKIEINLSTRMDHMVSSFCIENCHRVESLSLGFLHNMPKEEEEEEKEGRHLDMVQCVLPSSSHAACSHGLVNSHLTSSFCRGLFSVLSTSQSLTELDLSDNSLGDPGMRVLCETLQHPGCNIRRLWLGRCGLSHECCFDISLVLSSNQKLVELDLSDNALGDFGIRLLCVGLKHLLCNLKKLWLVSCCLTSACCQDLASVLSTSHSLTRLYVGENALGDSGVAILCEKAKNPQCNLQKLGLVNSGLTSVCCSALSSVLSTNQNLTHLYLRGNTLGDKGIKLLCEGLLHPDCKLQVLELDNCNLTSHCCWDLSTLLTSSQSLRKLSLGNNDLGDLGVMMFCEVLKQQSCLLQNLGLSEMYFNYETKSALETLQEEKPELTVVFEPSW

Test system in the first data set: not listed separately
As to the kind of experiment: Liver microsome metabolic stability, human. In kind it is in vitro ADME, humans. The conditions noted are these: human (h) liver microsomes 0.5 mg/ml, 45 min; read-out: LMS (h,r,m) (% rem, 45 min). On the procedure: (§1) Purpose: This experiment investigates the metabolic stability of the compound in liver microsomes of different species such as humans, mice and rats, and the residual content of the test compound after incubation with liver microsomes of different species such as humans, mice and rats.
(§2) Preparation of 500 µM solution of target compound and positive control: 5 µL of each 10 mM stock solution was taken, added to 95 µL acetonitrile, and mixed for 30 s;
(§3) Preparation of 6 mM NADPH solution: 100 mM Stock aliquot liquid was diluted with Mg-Mg-K-Buffer.
(§4) • 2.1.1 Liver microsome solution: 18.75 µL of 20 mg/mL HLM, RLM, MLM, DLM, MOLM (final concentration: 0.5 mg/ml) were taken and placed them in each well of a 96-well plate; • 2.1.2 1.5 µL of 500 µM solution of each compound was added respectively; • 2.1.3 479.8 µL of phosphate buffer was taken, then added to each compound well, and mixed at 1000 rpm in an oscillating mixer for 10 s.
(§5) 30 µL of the above samples were taken and aliquoted to a new 96-well plates respectively (including NADPH group, n=2, and no NADPH group at 0 and 45 min, n=1), marked as 0, 5, 15, 30 and 45 min; […]
(§6) The slope was calculated based on the LN value of the compound concentration percentage and time as the coordinate axis, and the residual content of the compound after incubation with liver microsomes was calculated based on the slope and formula. […]
Background: Microsomes from liver hold many membrane-bound enzymes, among them those of drug oxidation.
Turning to `CC(=O)N1CCOC[C@H]1CNc1nc2nc(-c3c(C)cc(C(F)(F)F)cc3O)ccc2o1` [Compound 111], the remaining at 0.75 h, 1 µM was 93.2%.

Test system in another data set: not listed separately
As to the kind of experiment: Liver microsome metabolic stability, mouse. As to conditions: mouse (m) liver microsomes 0.5 mg/ml, 45 min; read-out: LMS (h,r,m) (% rem, 45 min). It is filed as in vitro ADME, mice. On the procedure: as §1, §2, §3, §4, §5, §6
For `CC(=O)N1CCOC[C@H]1CNc1nc2nc(-c3c(C)cc(C(F)(F)F)cc3O)ccc2o1` [Compound 111], the remaining at 0.75 h, 1 µM is 91.3%.

In a further data set the test system is iodoacetic acid (MIA)-induced SD rat knee osteoarthritis model. As to the kind of experiment: Efficacy on iodoacetic acid-induced SD rat knee osteoarthritis model. In kind it is in vivo, SD rats. The conditions noted are these: 30mg/kg orally once a day from Day 7 to Day 42. On the procedure: Purpose: Evaluate the efficacy of MCC950 (Positive reference compound) and compound 111 of the present invention on iodoacetic acid (MIA)-induced SD rat knee osteoarthritis model. Experimental materials: Experimental male SD rats, 4 weeks old. Model induction began after the experimental animals were adapted to the animal environment for 7 days. Day 0, the rats were anesthetized, the hair around the left knee joint was removed, and the skin was disinfected. The left leg was flexed 90° to expose the patellar platform. The depression in the middle of the platform was touched by hand to find the femoral condyle, patella and ligament. The syringe needle was inserted from the bottom of the patella on both sides of the patellar ligament to the direction of the femoral condyle. When a clear sense of empty space was felt, 50µL of iodoacetic acid solution was injected. Day 7 Grouping was performed according to the width of the knee joint on the induced side. The groups were: normal control group (healthy control without modeling, 5% DMSO+10% Solutol+85% Saline), model blank control group (5% DMSO+10% Solutol+85% Saline), MCC950 30mg/kg, and compound 111 of the present invention 30mg/kg. Starting from Day 7, the normal control group and the model blank control group were given the solvent (5% DMSO+10% Solutol+85% Saline) orally once a day, and the other groups were given the corresponding compounds orally once a day until the end of the administration on Day 42. The knee joint width and body weight of the rats were measured once on Day 7, 14, 21, 28, 35, and 42. This experiment tested the efficacy of MCC950 (Positive compound) and compound 111 of the present invention on the SD rat knee osteoarthritis model induced by iodoacetic acid (MIA), see Figures 1 and 2.
`CC(=O)N1CCOC[C@H]1CNc1nc2nc(-c3c(C)cc(C(F)(F)F)cc3O)ccc2o1` [Compound 111]: the “body weight of the rats” value is “without affecting the body weight of the rats”.

The data set is the same for the next values; noted with them: 30mg/kg orally once a day from Day 7 to Day 42; compared with the model blank control group, 21 days to 42 days after modeling.
As to `CC(C)(O)c1coc(S(=O)(=O)NC(=O)Nc2c3c(cc4c2CCC4)CCC3)c1` [MCC950, reference compound], the “widening of the knee joints” value was “significantly inhibit the widening of the knee joints”. As for `CC(=O)N1CCOC[C@H]1CNc1nc2nc(-c3c(C)cc(C(F)(F)F)cc3O)ccc2o1` [Compound 111], the “widening of the knee joints” value is listed as “significantly inhibit the widening of the knee joints”.

Test system in the next data set: not listed separately
As to the kind of experiment: Liver microsome metabolic stability, rat. In kind it is in vitro ADME, rats. As to conditions: rat (r) liver microsomes 0.5 mg/ml, 45 min; read-out: LMS (h,r,m) (% rem, 45 min). On the procedure: as §1, §2, §3, §4, §5, §6
With `CC(=O)N1CCOC[C@H]1CNc1nc2nc(-c3c(C)cc(C(F)(F)F)cc3O)ccc2o1` [Compound 111], the remaining at 0.75 h, 1 µM came to 82.5%.

Another data set concerns the target IL-1β secretion of THP-1 cells (Homo sapiens, UniProt Q96P20). Nature of the data set: Effect of NLRP3 inhibitor on IL-1β secretion of THP-1 cells (AlphaLISA). It is filed as cell-based. The conditions noted are these: PMA 50nM, LPS 100ng/ml, Nigericin 10µM, IL-1β in supernatant. On the procedure:
This experiment used the PerkinElmer AlphaLISA_human_IL1β kit (AL220 C/F). The detection buffer was RPMI-1640+10FBS. AlphaLISA Immunoassay Buffer, AlphaLISA Anti-IL1β Acceptor beads, Streptavidin (SA)-coated Donor beads, and Biotinylated Antibody Anti-IL1β were all included in the kit.
The density of THP1 cells was adjusted to 4×10^5 cells/mL, PMA (final concentration 50nM) was added, inoculated into 96-well flat-bottom plates at 200µL/well, and stimulated overnight at 37°C, 5% CO2 (try to <16h). The next day, the supernatant was discarded, and the flat washed twice with DPBS (200µL/time). Then LPS solution (final concentration of 100ng/ml) was added at 198µL/well , incubated at 37°C, 5% CO2 for 3h. 1µL of the corresponding concentration of compounds was added to each well according to the experimental MAP, incubated at 37°C, 5% CO2 for 1h. 1µL Nigericin (final concentration of 10µM) was added to each well, incubated overnight at 5% CO2 (>18h). On the third day, 5µL of supernatant was taken, diluted 20 times, and the content of IL-Iβ in the supernatant was detected by Human Interleukin 1 beta (IL1β) Kit. Envision was used to read the AlphaLISA test value of Ex = 680/ Em = […]. GraphPad Prism 9.5.0 was used to analyze the data, and the IC50 value of the compound for IL-Iβ antagonism was fitted by four-parameter Logistic. […] Table 2: Results of IC50 experiments using THP-1 cells to detect NLRP3 inhibitors
In turn, `Oc1cc(Cl)cc(O)c1-c1ccc2oc(N3CCOCC3)nc2n1` [compound 376] yielded a concentration for half-maximal inhibition (IC50) of less than 50 nM. In turn, `CCS(=O)(=O)N1CCN(c2nc3nc(-c4c(C)cc(C(F)(F)F)cc4O)ccc3o2)C[C@@H]1C` [compound 394] gave an IC50 of 50 to 100 nM.

Molecule `Cc1cc(Cl)cc(O)c1-c1ccc2oc(N3CCS(=O)(=O)CC3)nc2n1` [compound 387] displayed an IC50 of 50 to 100 nM. Same read-out and setting: to `Cc1cc(C(F)(F)F)cc(O)c1-c1ccc2oc(N3CCN(S(=O)(=O)C4CC4)CC3)nc2n1` [compound 392] belongs less than 50 nM; to `Cc1cc(C(F)(F)F)cc(O)c1-c1ccc2[nH]c(NCC(C)(C)O)nc2n1` [Compound 6], 100 to 500 nM.

Molecule `Cc1cc(C(F)(F)F)cc(O)c1-c1ccc2oc(N3CC4CCC(C3)O4)nc2n1` [compound 381] came in with a 50% inhibitory concentration (IC50) of 100 to 500 nM.

`Cc1cc(C(F)(F)F)cc(O)c1-c1ccc2oc(N[C@@H]3CCCN(C4CC4)C3)nc2n1` [compound 399]: the IC50 was less than 50 nM. Molecule `CCN1CCC[C@@H](Nc2nc3ccc(-c4c(C)cc(C(F)(F)F)cc4O)nn3n2)C1` [compound 439] registered a 50% inhibitory concentration (IC50) of less than 50 nM. Molecule `CCN1C[C@H](F)C[C@@H](Nc2nc3nc(-c4c(C)cc(C(F)(F)F)cc4O)ccc3o2)C1` [compound 397] came in with a concentration for half-maximal inhibition (IC50) of 100 to 500 nM.

For the molecule `Cc1cc(C(F)(F)F)cc(O)c1-c1cc(C)c2nc(N3CCOCC3)nn2n1` [compound 424], the IC50 is less than 50 nM.

Molecule `Cc1cc(C(F)(F)F)cc(O)c1-c1ccc2oc(N3CCN(S(C)(=O)=O)CC3)nc2n1` [compound 390] had an IC50 of less than 50 nM.

In turn, `CC(=O)NC[C@@H]1COCCN1c1nc2c(C)cc(-c3c(C)cc(C(F)(F)F)cc3O)nn2n1` [compound 442] yielded an IC50 of less than 50 nM. Same read-out and setting: to `Cc1cc(C(F)(F)F)cc(O)c1-c1ccn2nc(N[C@@H]3CCCN(C)C3)nc2n1` [compound 444] belongs less than 50 nM. The same measure, in the same setting: the value for `Cc1cc(C(F)(F)F)cc(O)c1-c1ccc2oc(NC[C@@H](C)O)nc2n1` [compound 413] was 50 to 100 nM. On to `CCS(=O)(=O)N1CCN(c2nc3nc(-c4c(C)cc(C(F)(F)F)cc4O)ccc3o2)CC1` [compound 388], for which the IC50 lay in the range of 50 to 100 nM. `Cc1cc(C(F)(F)F)cc(O)c1-c1ccc2nc(N[C@@H]3CCCN(C)C3)nn2n1` [compound 445]: the IC50 is less than 50 nM. In turn, `Cc1cc(C(F)(F)F)cc(O)c1-c1ccc2nc(N3CCOCC3)nn2n1` [compound 423] came in with a half-maximal inhibitory concentration (IC50) of 100 to 500 nM. `CC(=O)NC[C@@H]1COCCN1c1nc2nc(-c3c(C)cc(C(F)(F)F)cc3O)cc(C)n2n1` [compound 441] showed an IC50 of less than 50 nM. The same measure, in the same setting: to `Cc1cc(C(F)(F)F)cc(O)c1-c1cc(C)n2nc(N[C@H]3CCCN(CCO)C3)nc2n1` [compound 460] belongs less than 50 nM; to `Cc1cc(C(F)(F)F)cc(O)c1-c1ccc2oc(N[C@@H]3CCCN(CCO)C3)nc2n1` [compound 404], less than 50 nM; to `Cc1cc(C(F)(F)F)cc(O)c1-c1ccc2nc(N3CCS(=O)(=O)CC3)nn2n1` [compound 422], 100 to 500 nM. `Cc1cc(C(F)(F)F)cc(O)c1-c1cc(C)n2nc(N[C@@H]3CCCN(C)C3)nc2n1` [compound 443] registered an IC50 of less than 50 nM. Molecule `Cc1cc(C(F)(F)F)cc(O)c1-c1ccc2oc(N3CCOC[C@H]3C)nc2n1` [compound 371] displayed an IC50 of 50 to 100 nM. Regarding `Cc1cc(C(F)(F)F)cc(O)c1-c1ccc2oc(N[C@@H]3CCCN(C(C)C)C3)nc2n1` [compound 400], the 50% inhibitory concentration (IC50) is less than 50 nM. `Cc1cc(C(F)(F)F)cc(O)c1-c1cc(C)c2nc(N[C@@H]3CCCN(C)C3)nn2n1` [compound 446] registered a concentration for half-maximal inhibition (IC50) of less than 50 nM.

Molecule `CCN1CCC[C@@H](Nc2nc3nc(-c4c(C)cc(C(F)(F)F)cc4O)ccn3n2)C1` [compound 448] came in with an IC50 of less than 50 nM. Regarding `Cc1cc(C(F)(F)F)cc(O)c1-c1ccn2nc(N3CCOCC3)nc2n1` [compound 426], the half-inhibitory concentration (IC50) was less than 50 nM. For the molecule `CCN1CCC[C@@H](Nc2nc3c(C)cc(-c4c(C)cc(C(F)(F)F)cc4O)nn3n2)C1` [compound 447], the IC50 is less than 50 nM. Regarding `CCN1CCC[C@H](Nc2nc3nc(-c4c(C)cc(C(F)(F)F)cc4O)cc(C)n3n2)C1` [compound 462], the 50% inhibitory concentration (IC50) was less than 50 nM. As to `CCN1CCC[C@@H](n2ccc3cc(-c4c(C)cc(C(F)(F)F)cc4O)nnc32)C1` [11-a], the IC50 is less than 50 nM.

In turn, `CCN1CCC[C@@H](N2CC(=O)Nc3cc(-c4c(C)cc(C(F)(F)F)cc4O)nnc32)C1` [12-a] gave an IC50 of less than 50 nM. Molecule `Cc1cc(C(F)(F)F)cc(O)c1-c1ccc2oc(N3CCS(=O)(=O)CC3)nc2n1` [compound 384] came in with an IC50 of less than 50 nM. `Cc1cc(C(F)(F)F)cc(O)c1-c1cc(C)n2nc(N3CCOCC3)nc2n1` [compound 440]: the half-inhibitory concentration (IC50) fell in the range of 50 to 100 nM.
